Reference: ChEMBL document CHEMBL1127863, “New nonpeptide angiostensin II receptor antagonists. Synthesis, biological properties and structure-activity relationships of 3-substituted 2,6-dialkyl-4-(biphenyll)methylaminopyridine derivatives” (Bioorg Med Chem Lett, 1994)

Legend:
[1] = target: Angiotensin II receptor (Cavia porcellus); assay: Inhibition of [125I]AII binding to guinea pig adrenal membrane
Rattus norvegicus = assay: Effective dose following intravenous administration to conscious rats for inhibition of AII-induced pressor response; format: functional

Structure (SMILES) | IC50 [1] [nM] | ED50 (Rattus norvegicus) [mg/kg]
CCc1cc(NCc2ccc(-c3ccccc3-c3nn[nH]n3)cc2)c(C(=O)OC)c(CC)n1 | 6.21 | –
CCc1cc(NCc2ccc(-c3ccccc3-c3nn[nH]n3)cc2)c(-c2ccc(C(F)(F)F)cc2)c(CC)n1 | 26.4 | –
CCc1cc(NCc2ccc(-c3ccccc3-c3nn[nH]n3)cc2)c(-c2ccc(C)cc2)c(CC)n1 | 24.9 | –
CCc1cc(NCc2ccc(-c3ccccc3-c3nn[nH]n3)cc2)c(Br)c(CC)n1 | 3.83 | 0.09
CCCCc1nc(Cl)c(CO)n1Cc1ccc(-c2ccccc2-c2nnn[nH]2)cc1 [LOSARTAN] | – | 0.65
CCc1cc(OCc2ccc(-c3ccccc3-c3nn[nH]n3)cc2)c(I)c(CC)n1 | 14 | 0.44
Cc1cc(NCc2ccc(-c3ccccc3-c3nn[nH]n3)cc2)c(I)c(C)n1 | 3.48 | 0.05
COC(=O)c1c(NCc2ccc(-c3ccccc3-c3nn[nH]n3)cc2)cc(C)nc1C | 8.03 | –
CCc1cc(OCc2ccc(-c3ccccc3-c3nn[nH]n3)cc2)c2c(n1)CCCC2 | – | 0.39
CCc1cc(NCc2ccc(-c3ccccc3-c3nn[nH]n3)cc2)c(Cl)c(CC)n1 | 7.58 | 0.06
Cc1cc(NCc2ccc(-c3ccccc3-c3nn[nH]n3)cc2)c(Cl)c(C)n1 | 6.65 | 0.03
CCc1cc(OCc2ccc(-c3ccccc3-c3nn[nH]n3)cc2)c2ccccc2n1 | – | 1
CCc1cc(NCc2ccc(-c3ccccc3-c3nn[nH]n3)cc2)c(I)c(CC)n1 | 2.64 | 0.13
